Target: human PD-L1 (Homo sapiens (Human), UniProt Q9NZQ7)
Assay: Enzyme-Linked Immunosorbent Assay (ELISA), PD-1/PD-L1 binding
Details: PD-1/PD-L1 ELISA, human PD-L1 coated plates, Table 1
In short: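 Competitive ELISA: human PD-1 […] (0.31 μg/mL) and serially diluted compounds (1:5) incubated 1 h at 37° C on wells coated with […] human PD-L1. Signal via streptavidin-HRP/TMB, stopped with 2 N H2SO4, measured as A450.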

Sequence of human PD-L1 (Q9NZQ7 19-239): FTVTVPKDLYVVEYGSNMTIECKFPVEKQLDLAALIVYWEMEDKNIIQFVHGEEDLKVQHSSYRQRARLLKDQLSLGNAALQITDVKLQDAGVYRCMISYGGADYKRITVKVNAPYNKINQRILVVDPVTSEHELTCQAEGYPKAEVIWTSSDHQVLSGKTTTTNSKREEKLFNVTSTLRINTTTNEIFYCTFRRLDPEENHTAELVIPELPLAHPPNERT

IC50 | SMILES
< 10 nM | COc1cc(-c2cccc(-c3cccc(NC(=O)c4cncn(C)c4=O)c3C)c2C)cc(F)c1CNC1CCCC1 [Example 1.198]
< 10 nM | COc1cc(-c2cccc(-c3cccc(NC(=O)c4cncn(C)c4=O)c3C)c2C)cc(F)c1CN[C@@H]1CCC[C@@H]1O [Example 1.199]
< 10 nM | COc1cc(-c2cccc(-c3cccc(Nc4nccc5nccnc45)c3C)c2C)cc(F)c1CNC[C@@H]1CCC(=O)N1 [Example 1.200]
< 10 nM | COc1cc(-c2cccc(-c3cccc(NC(=O)c4c[nH]c(=O)n(C)c4=O)c3C)c2C)cc(F)c1CNC[C@@H]1CCC(=O)N1 [Example 1.201]
< 10 nM | COc1cc(-c2cccc(-c3cccc(NC(=O)c4cncn(C)c4=O)c3C)c2C)cc(F)c1CNC1CCC1 [Example 1.202]
< 10 nM | COc1cc(-c2cccc(-c3cccc(NC(=O)c4cncn(C)c4=O)c3C)c2C)cc(F)c1CNC[C@@H](C)O [Example 1.203]
< 10 nM | COc1cc(-c2cccc(-c3cccc(NC(=O)c4cncn(C)c4=O)c3C)c2C)cc(F)c1CN[C@H](C)CO [Example 1.204]
< 10 nM | COc1cc(-c2cccc(-c3cccc(NC(=O)c4cncn(C)c4=O)c3C)c2C)cc(F)c1CNCC(C)(C)O [Example 1.205]
< 10 nM | COc1cc(-c2cccc(-c3cccc(Nc4nccc5nccnc45)c3C)c2C)cc(F)c1CN[C@@H]1CNC(=O)C1 [Example 1.206]
< 10 nM | COc1cc(-c2cccc(-c3cccc(Nc4nccc5nccnc45)c3C)c2C)cc(F)c1CN[C@H](C)CO [Example 1.207]
< 10 nM | COc1cc(-c2cccc(-c3cccc(Nc4nccc5nccnc45)c3C)c2C)cc(F)c1CNC[C@@H](C)O [Example 1.208]
< 10 nM | COc1cc(-c2cccc(-c3cccc(NC(=O)c4cncn(C)c4=O)c3C)c2C)cc(F)c1CN[C@@H]1CNC(=O)C1 [Example 1.209]
< 10 nM | COc1cc(-c2cccc(-c3cccc(NC(=O)C4=CNCN(C)C4=O)c3C)c2C)cc(F)c1CNCCO [Example 1.210]
< 10 nM | COc1cc(-c2cccc(-c3cccc(NC(=O)c4cncn(C)c4=O)c3C)c2C)cc(F)c1CNC[C@@H]1CCC(=O)N1 [Example 1.211]
10 to 1000 nM | COc1cc(-c2cccc(-c3cccc(NC(=O)c4c[nH]c(=O)n(C)c4=O)c3C)c2C)cc(F)c1CNC1CNC1 [Example 1.212]
< 10 nM | COc1cc(-c2cccc(-c3cccc(Nc4nccc5nccnc45)c3C)c2C)cc(F)c1CNC1CCOC1 (centres unmarked) [Example 1.213]
< 10 nM | COc1cc(-c2cccc(-c3cccc(NC(=O)c4c[nH]c(=O)n(C)c4=O)c3C)c2C)cc(F)c1CNCC1(O)CC1 [Example 1.214]
10 to 1000 nM | COc1cc(-c2cccc(-c3cccc(Nc4nccc5c4C(=O)N(C)CC5)c3C)c2C)cc(F)c1CNCCO [Example 1.215]
10 to 1000 nM | COc1cc(-c2cccc(-c3cccc(NC(=O)c4c[nH]c(=O)n(C)c4=O)c3C)c2C)cc(F)c1CNC1COC1 [Example 1.216]
< 10 nM | COc1cc(-c2cccc(-c3cccc(NC(=O)c4c[nH]c(=O)n(C)c4=O)c3C)c2C)cc(F)c1CN[C@@H]1CCCC[C@@H]1O [Example 1.217]
< 10 nM | COc1cc(-c2cccc(-c3cccc(NC(=O)c4c[nH]c(=O)n(C)c4=O)c3C)c2C)cc(F)c1CN[C@@H]1CCC[C@@H]1O [Example 1.218]
10 to 1000 nM | COc1cc(-c2cccc(-c3cccc(Nc4nccc5c4C(=O)N(C)CC5)c3C)c2C)cc(F)c1CN1CC(C(=O)OC(C)C)C1 [Example 1.219]

IC50 | SMILES
< 10 nM | COc1cc(-c2cccc(-c3cccc(NC(=O)c4c[nH]c(=O)n(C)c4=O)c3C)c2C)cc(F)c1CN(C)CCO [Example 1.220]
< 10 nM | COc1cc(-c2cccc(-c3cccc(NC(=O)c4cncn(C)c4=O)c3C)c2C)cc(F)c1CNCCO [Example 1.221]
< 10 nM | COc1cc(-c2cccc(-c3cccc(NC(=O)c4c[nH]c(=O)n(C)c4=O)c3C)c2C)cc(F)c1CNC[C@@H](C)O [Example 1.222]
< 10 nM | COc1cc(-c2cccc(-c3cccc(NC(=O)c4c[nH]c(=O)n(C)c4=O)c3C)c2C)cc(F)c1CNC[C@H](C)O [Example 1.223]
< 10 nM | COc1cc(-c2cccc(-c3cccc(NC(=O)c4c[nH]c(=O)n(C)c4=O)c3C)c2C)cc(F)c1CNC1CCOC1 (centres unmarked) [Example 1.224]
< 10 nM | COc1cc(-c2cccc(-c3cccc(NC(=O)c4c[nH]c(=O)n(C)c4=O)c3C)c2C)cc(F)c1CN[C@H](C)CO [Example 1.225]
< 10 nM | COc1cc(-c2cccc(-c3cccc(NC(=O)c4c[nH]c(=O)n(C)c4=O)c3C)c2C)cc(F)c1CN[C@@H](C)CO [Example 1.226]
< 10 nM | COc1cc(-c2cccc(-c3cccc(NC(=O)c4c[nH]c(=O)n(C)c4=O)c3C)c2C)cc(F)c1CN1CC(N)C1 [Example 1.227]
10 to 1000 nM | COc1cc(-c2cccc(-c3cccc(NC(=O)c4c[nH]c(=O)n(C)c4=O)c3C)c2C)cc(F)c1CN1CCC(N)C1 (centres unmarked) [Example 1.228]
< 10 nM | COc1cc(-c2cccc(-c3cccc(NC(=O)c4c[nH]c(=O)n(C)c4=O)c3C)c2C)cc(F)c1CN[C@@H]1CNC(=O)C1 [Example 1.229]
< 10 nM | COc1cc(-c2cccc(-c3cccc(NC(=O)c4c[nH]c(=O)n(C)c4=O)c3C)c2C)cc(F)c1CN[C@H]1CCC(=O)NC1 [Example 1.230]
< 10 nM | COc1cc(-c2cccc(-c3cccc(Nc4nccc5nccnc45)c3C)c2C)cc(F)c1CN1CC(O)C1 [Example 1.231]
< 10 nM | COc1cc(-c2cccc(-c3cccc(NC(=O)c4c[nH]c(=O)n(C)c4=O)c3C)c2C)cc(F)c1CNCC(C)(C)O [Example 1.232]
< 10 nM | COc1cc(-c2cccc(-c3cccc(NC(=O)c4c[nH]c(=O)n(C)c4=O)c3C)c2C)cc(F)c1CNCCN [Example 1.234]
10 to 1000 nM | COc1cc(-c2cccc(-c3cccc(NC(=O)c4c[nH]c(=O)n(C)c4=O)c3C)c2C)cc(F)c1CN1CCOCC1 [Example 1.235]
< 10 nM | COc1cc(-c2cccc(-c3cccc(NC(=O)c4c[nH]c(=O)n(C)c4=O)c3C)c2C)cc(F)c1CNC(C)C [Example 1.236]
< 10 nM | COc1cc(-c2cccc(-c3cccc(Nc4nccc5nccnc45)c3C)c2C)cc(F)c1CNCCO [Example 1.238]
10 to 1000 nM | COc1cc(-c2cccc(-c3cccc(Nc4nccc5nccnc45)c3C)c2C)cc(F)c1CNCC(N)=O [Example 1.239]
< 10 nM | COc1cc(-c2cccc(-c3cccc(Nc4nccc5nccnc45)c3C)c2C)cc(F)c1CNCC(=O)O [Example 1.240]
< 10 nM | COc1cc(-c2cccc(-c3cccc(NC(=O)c4c[nH]c(=O)n(C)c4=O)c3C)c2C)cc(F)c1CN(C)C [Example 1.241]
10 to 1000 nM | COc1cc(-c2cccc(-c3cccc(NC(=O)c4c[nH]c(=O)n(C)c4=O)c3C)c2C)cc(F)c1CN1CC2(C1)NC(=O)NC2=O [Example 1.242]
1000 to 10000 nM | COc1cc(-c2cccc(-c3cccc(Nc4ncnc5cccnc45)c3C)c2C)cc(F)c1CN1CC(C(=O)O)C1 [Example 1.243]

Same assay, conditions: human PD-1/PD-L1 ELISA, plates coated with human PD-L1

IC50 | SMILES
< 10 nM | COc1cc(-c2cccc(-c3cccc(Nc4nccc5nccnc45)c3C)c2C)cc(F)c1CN[C@@H]1CCC[C@@H]1O [Example 1.180]
< 10 nM | COc1cc(-c2cccc(-c3cccc(Nc4nccc5nccnc45)c3C)c2C)cc(F)c1CNC(C)C [Example 1.181]
1000 to 10000 nM | COc1cc(-c2cccc(-c3cccc(NC(=O)c4cncn(C)c4=O)c3C)c2C)cc(F)c1CN1CCNC(=O)C1 [Example 1.182]
1000 to 10000 nM | COc1cc(-c2cccc(-c3cccc(NC(=O)c4c[nH]c(=O)n(C)c4=O)c3C)c2C)cc(F)c1CN1CCNC(=O)C1 [Example 1.183]
10 to 1000 nM | COc1cc(-c2cccc(-c3cccc(Nc4nccc5c4C(=O)N(C)CC5)c3C)c2C)cc(F)c1CNC(C)C [Example 1.184]
10 to 1000 nM | COc1cc(-c2cccc(-c3cccc(Nc4nccc5c4C(=O)N(C)CC5)c3C)c2C)cc(F)c1CNC[C@@H](C)O [Example 1.185]
< 10 nM | COc1cc(-c2cccc(-c3cccc(NC(=O)c4cncn(C)c4=O)c3C)c2C)cc(F)c1CNC[C@H]1CCC(=O)N1 [Example 1.186]
< 10 nM | COc1cc(-c2cccc(-c3cccc(NC(=O)c4cn(C)c(=O)n(C)c4=O)c3C)c2C)cc(F)c1CNC[C@@H]1CCC(=O)N1 [Example 1.187]
< 10 nM | COc1cc(-c2cccc(-c3cccc(NC(=O)c4cn(C)c(=O)n(C)c4=O)c3C)c2C)cc(F)c1CN[C@@H]1CNC(=O)C1 [Example 1.188]
10 to 1000 nM | COc1cc(-c2cccc(-c3cccc(NC(=O)c4cncn(C)c4=O)c3C)c2C)cc(F)c1CN(C)C[C@@H]1CCC(=O)N1C [Example 1.189]
< 10 nM | CC[C@@H](O)NCc1c(F)cc(-c2cccc(-c3cccc(Nc4nccc5c4C(=O)N(C)CC5)c3C)c2C)cc1OC [Example 1.190]
< 10 nM | COc1cc(-c2cccc(-c3cccc(Nc4nccc5c4C(=O)N(C)CC5)c3C)c2C)cc(F)c1CN[C@@H]1CCC[C@@H]1O [Example 1.191]
10 to 1000 nM | COc1cc(-c2cccc(-c3cccc(Nc4nccc5c4C(=O)N(C)CC5)c3C)c2C)cc(F)c1CN(C)C[C@@H]1CCC(=O)N1 [Example 1.192]
< 10 nM | COc1cc(-c2cccc(-c3cccc(Nc4nccc5c4C(=O)N(C)CC5)c3C)c2C)cc(F)c1CNC[C@@H]1CCC(=O)N1 [Example 1.193]
10 to 1000 nM | COc1cc(-c2cccc(-c3cccc(NC(=O)C4=CNCN(C)C4=O)c3C)c2C)cc(F)c1CNC[C@@H]1CCC(=O)N1C [Example 1.194]
< 10 nM | COc1cc(-c2cccc(-c3cccc(NC(=O)c4cncn(C)c4=O)c3C)c2C)cc(F)c1CNC[C@@H]1CCC(=O)N1C [Example 1.195]
10 to 1000 nM | COc1cc(-c2cccc(-c3cccc(Nc4nccc5c4C(=O)N(C)CC5)c3C)c2C)cc(F)c1CN[C@@H]1CNC(=O)C1 [Example 1.196]
< 10 nM | COc1cc(-c2cccc(-c3cccc(NC(=O)c4cncn(C)c4=O)c3C)c2C)cc(F)c1CNC1COC1 [Example 1.197]

Source: US11266643B2, “Triaryl compounds for treatment of PD-L1 diseases” (CHEMOCENTRYX, INC., priority 2019, dated 2022)
